Source: patent US8586588B2, “Aryl pyridazinone derivatives and their use as H3 receptor ligands” (Cephalon, Inc., priority 2006, dated 2013)
Where a name gives a salt, the structure may show the parent alone. Read-outs that look alike come from different tables or passages of the source.

Legend:
[1] = molecular target: T1, human H3 receptor (Homo sapiens, UniProt Q9Y5N1); assay: Human H3 radioligand binding ([3H]-N-alpha-methylhistamine, CHO cell membranes, SPA); conditions: binding constant as letter class
T1 construct: expressed in transfected cells
Procedure: (§1) Cell pellets were resuspended in 5 mM Tris-HCl, pH 7.5 with […] and a cocktail of protease inhibitors (Complete Protease Inhibition Tablets, Roche Diagnostics). Cells were disrupted using a polytron cell homogenizer and the suspension was centrifuged at 1000×g for 10 minutes at 4° C. The pellet was discarded and the supernatant centrifuged at 40,000×g for 30 min at 4° C. This membrane pellet was washed in membrane buffer containing 50 mM Tris-HCl, pH 7.5 with 0.6 mM EDTA, 5 mM MgCl2 and protease inhibitors, recentrifuged as above and the final pellet resuspended in membrane buffer plus 250 mM sucrose and frozen at −80° C.
(§2) Membranes were resuspended in 50 mM Tris HCl (pH 7.4), 5 mM MgCl2, 0.1% BSA. The membrane suspensions (10 μg protein per well) were incubated in a 96 well microtiter plate with [^3H]-N-alpha-methylhistamine (approximately 1 nM final concentration), test compounds at various concentrations (0.01 nM-30 μM) and scintillation proximity beads (Perkin Elmer, FlashBlueGPCR Scintillating Beads) in a final volume of 80 μl for 4 hours at room temperature, protected from light. Non-specific binding was determined in the presence of 10 μM clobenpropit. Radioligand bound to receptor, and therefore in proximity to the scintillation beads, was measured using a MicroBeta scintillation counter.

[2] = molecular target: T2, rat histamine H3 receptor (Rattus norvegicus, UniProt Q9QYN8); assay: Rat H3 radioligand binding ([3H]-N-alpha-methylhistamine, CHO-A3 cell membranes, SPA); conditions: binding constant as letter class
T2 construct: encoding the entire 445-amino-acid rat histamine H3 receptor; expressed in transfected cells
Procedure: as §1, with “This was engineered into the pIRES-neo3 mammalian expression vector, which was stably transfected into the CHO-A3 cell line (Euroscreen, Belgium), followed by clonal selection by limiting dilution. Cells were harvested and cell pellets were frozen (−80° C.). Cell pellets” for “Cell pellets”
as §2

T2 sequence (Q9QYN8 whole entry): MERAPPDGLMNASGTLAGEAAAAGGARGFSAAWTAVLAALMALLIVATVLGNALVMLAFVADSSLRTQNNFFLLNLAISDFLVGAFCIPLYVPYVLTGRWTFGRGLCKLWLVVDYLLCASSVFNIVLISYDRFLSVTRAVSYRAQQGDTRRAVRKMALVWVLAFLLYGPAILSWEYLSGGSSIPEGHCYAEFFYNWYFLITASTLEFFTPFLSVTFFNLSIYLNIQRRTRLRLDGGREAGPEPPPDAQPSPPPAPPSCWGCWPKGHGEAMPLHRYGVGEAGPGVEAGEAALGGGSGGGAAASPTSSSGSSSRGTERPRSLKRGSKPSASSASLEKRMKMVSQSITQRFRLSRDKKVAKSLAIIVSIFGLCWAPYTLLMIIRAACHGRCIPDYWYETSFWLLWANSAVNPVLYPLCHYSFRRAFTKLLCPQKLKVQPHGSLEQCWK
T1 sequence (Q9Y5N1 whole entry): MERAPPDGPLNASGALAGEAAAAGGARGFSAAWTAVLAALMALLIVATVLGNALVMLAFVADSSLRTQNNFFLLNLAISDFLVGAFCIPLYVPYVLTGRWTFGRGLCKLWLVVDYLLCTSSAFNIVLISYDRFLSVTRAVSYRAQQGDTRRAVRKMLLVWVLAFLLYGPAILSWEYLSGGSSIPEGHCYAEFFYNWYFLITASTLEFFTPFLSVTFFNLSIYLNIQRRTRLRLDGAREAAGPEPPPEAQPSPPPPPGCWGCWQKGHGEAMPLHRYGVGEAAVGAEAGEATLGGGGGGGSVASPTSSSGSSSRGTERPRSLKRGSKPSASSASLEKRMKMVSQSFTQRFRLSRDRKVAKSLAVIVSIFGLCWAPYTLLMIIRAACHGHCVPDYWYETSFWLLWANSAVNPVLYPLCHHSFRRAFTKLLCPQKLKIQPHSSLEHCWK

SMILES | Ki ([1]; Table A) [µM] | Ki ([2]; Table A, read-out: Rat H3 Ki) [µM] | Ki ([1]; Table B) [µM] | Ki ([2]; Table B, read-out: rat H3 Ki) [µM]
Cn1nc(-c2ccc(OC3CCN(C4CCC4)CC3)cc2)ccc1=O [Example 74] | 0.0001 to 0.1 | 0.0001 to 0.1 | – | –
Cc1nn(-c2ccccn2)c(=O)cc1-c1ccc(OCCCN2CCC[C@H]2C)cc1 [Example 100, 6-Methyl-5-{4-[3-((R)-2-methyl-pyrrolidin-1-yl)-propoxy]-phenyl}-2-pyridin-2-yl-2H-pyridazin-3-one] | – | – | 0.0001 to 0.1 | 0.0001 to 0.1
C[C@@H]1CCCN1CCCOc1ccc(-c2ccc(=O)[nH]n2)cc1 [Example 11, 6-{4-[3-((R)-2-Methyl-pyrrolidin-1-yl)-propoxy]-phenyl}-2H-pyridazin-3-one] | 0.0001 to 0.1 | 0.0001 to 0.1 | – | –
C[C@@H]1CCCN1CCCOc1ccc(-c2nn(C)c(=O)c3ccccc23)cc1 [Example 49, 2-Methyl-4-{4-[3-((R)-2-methyl-pyrrolidin-1-yl)-propoxy]-phenyl}-2H-phthalazin-1-one] | 0.0001 to 0.1 | 0.0001 to 0.1 | – | –
C[C@@H]1CCCN1CCCOc1ccc(-c2ccc(=O)n(C)n2)cc1 [Example 1, 2-Methyl-6-{4-[3-((R)-2-methyl-pyrrolidin-1-yl)-propoxy]-phenyl}-2H-pyridazin-3-one] | 0.0001 to 0.1 | 0.0001 to 0.1 | – | –
O=C1NN=C(c2ccc(OC3CCN(C4CCCC4)CC3)cc2)C2CC12 (stereo not shown) [Example 261, 5-[4-(1-Cyclopentyl-piperidin-4-yloxy)-phenyl]-3,4-diaza-bicyclo[4.1.0]hept-4-en-2-one] | – | – | 0.0001 to 0.1 | 0.0001 to 0.1
Cc1nn(C)c(=O)cc1-c1ccc(OCCCN2CCC[C@H]2C)cc1 [Example 86, 2,6-Dimethyl-5-{4-[3-((R)-2-methyl-pyrrolidin-1-yl)-propoxy]-phenyl}-2H-pyridazin-3-one] | – | – | 0.0001 to 0.1 | 0.0001 to 0.1
Cn1nc(-c2ccc(OCC3CCNCC3)cc2)ccc1=O [Example 66, 2-Methyl-6-[4-(piperidin-4-ylmethoxy)-phenyl]-2H-pyridazin-3-one] | > 1 | > 1 | – | –
C[C@@H]1CCCN1CCCOc1ccc(-c2ccc(=O)n(C)n2)cc1F [Example 7, 6-{3-Fluoro-4-[3-((R)-2-methyl-pyrrolidin-1-yl)-propoxy]-phenyl}-2-methyl-2H-pyridazin-3-one] | 0.0001 to 0.1 | 0.0001 to 0.1 | – | –
CC(C)n1nc2c(cc1=O)CCc1cc(OCCCN3CCCCC3)ccc1-2 [Example 78, 2-Isopropyl-8-(3-piperidin-1-yl-propoxy)-5,6-dihydro-2H-benzo[h]cinnolin-3-one] | 0.0001 to 0.1 | 0.0001 to 0.1 | – | –
Cn1ncc(-c2ccc(OCCCN3CCCCCC3)cc2)cc1=O [Example 93, 5-[4-(3-Azepan-1-yl-propoxy)-phenyl]-2-methyl-2H-pyridazin-3-one] | – | – | 0.0001 to 0.1 | 0.0001 to 0.1
Cn1nc(-c2ccc(OCCCN3CCCC3)cc2)c2ccccc2c1=O [Example 52, 2-Methyl-4-[4-(3-pyrrolidin-1-yl-propoxy)-phenyl]-2H-phthalazin-1-one] | 0.0001 to 0.1 | 0.0001 to 0.1 | – | –
O=c1ccc(-c2ccc(OCCCN3CCCCC3)c(F)c2)nn1-c1ccccc1 [Example 10, 6-[3-Fluoro-4-(3-piperidin-1-yl-propoxy)-phenyl]-2-phenyl-2H-pyridazin-3-one] | 0.0001 to 0.1 | 0.101 to 0.5 | – | –
CCN1N=C(c2ccc(OC3CCN(C4CCC4)CC3)cc2)C2CC2C1=O (stereo not shown) [Example 250, 5-[4-(1-Cyclobutyl-piperidin-4-yloxy)-phenyl]-3-ethyl-3,4-diaza-bicyclo[4.1.0]hept-4-en-2-one] | – | – | 0.0001 to 0.1 | 0.0001 to 0.1
C[C@@H]1CCCN1CCCOc1ccc(-c2cc(Cc3ccccc3)c(=O)n(C)n2)cc1 [Example 45, 4-Benzyl-2-methyl-6-{4-[3-((R)-2-methyl-pyrrolidin-1-yl)-propoxy]-phenyl}-2H-pyridazin-3-one] | 0.0001 to 0.1 | 0.0001 to 0.1 | – | –
COC[C@@H]1CCCN1CCCOc1ccc(-c2nn(C(C)C)c(=O)c3ccsc23)cc1 [Example 26, 5-Isopropyl-7-{4-[3-((S)-2-methoxymethyl-pyrrolidin-1-yl)propoxy]-phenyl}-5H-thieno[2,3-d]pyridazin-4-one] | 0.0001 to 0.1 | > 1 | – | –

SMILES | Ki ([1]; Table A) [µM] | Ki ([2]; Table A, read-out: Rat H3 Ki) [µM] | Ki ([1]; Table B) [µM] | Ki ([2]; Table B, read-out: rat H3 Ki) [µM]
C[C@@H]1CCCN1CCCOc1ccc(-c2cc(-c3ccccn3)c(=O)[nH]n2)cc1 [Example 217, 6-{4-[3-((R)-2-Methyl-pyrrolidin-1-yl)-propoxy]-phenyl}-4-pyridin-2-yl-2H-pyridazin-3-one] | – | – | 0.0001 to 0.1 | 0.0001 to 0.1
Cc1onc2c(=O)[nH]nc(-c3ccc(OC4CCNCC4)cc3)c12 [Example 206, 3-methyl-4-[4-(piperidin-4-yloxy)phenyl]-6h-isoxazolo-[3,4-d]pyridazin-7-one TFA salt] | – | – | > 1 | > 1
C[C@@H]1CCCN1CCCOc1ccc(-c2cn[nH]c(=O)c2)cc1 [Example 223, 5-{4-[3-((R)-2-Methyl-pyrrolidin-1-yl)-propoxy]-phenyl}-2H-pyridazin-3-one] | – | – | 0.0001 to 0.1 | 0.0001 to 0.1
Cc1nn(-c2ccsc2)c(=O)cc1-c1ccc(OC2CCN(C3CCC3)CC2)cc1 [Example 107, 5-[4-(1-Cyclobutyl-piperidin-4-yloxy)-phenyl]-6-methyl-2-thiophen-3-yl-2H-pyridazin-3-one] | – | – | 0.0001 to 0.1 | 0.0001 to 0.1
Cc1onc2c(=O)[nH]nc(-c3ccc(OC4CCN(C5CCC5)CC4)cc3)c12 [Example 205, 4-[4-(1-Cyclobutyl-piperidin-4-yloxy)-phenyl]-3-methyl-6H-isoxazolo[3,4-d]pyridazin-7-one] | – | – | 0.101 to 0.5 | 0.101 to 0.5
O=C1NN=C(c2ccc(OC3CCN(C4CCC4)CC3)cc2)C2CC12 (single isomer, unassigned) [Example 248, 5-[4-(1-Cyclobutyl-piperidin-4-yloxy)-phenyl]-3,4-diaza-bicyclo[4.1.0]hept-4-en-2-one] | – | – | 0.0001 to 0.1 | 0.0001 to 0.1
Cn1nc(-c2ccc(OCCCN3CCCCC3)cc2)ccc1=O [Example 2, 2-Methyl-6-[4-(3-piperidin-1-yl-propoxy)-phenyl]-2H-pyridazin-3-one] | 0.0001 to 0.1 | 0.101 to 0.5 | – | –
C[C@@H]1CCCN1CCCOc1ccc2c(c1)CCc1cc(=O)n(-c3ccccc3)nc1-2 [Example 76, 8-[3-((R)-2-Methyl-pyrrolidin-1-yl)-propoxy]-2-phenyl-5,6-dihydro-2H-benzo[h]cinnolin-3-one] | 0.0001 to 0.1 | 0.0001 to 0.1 | – | –
C[C@@H]1CCCN1CCCOc1ccc(C2=NNC(=O)CC2)cc1 [Example 178, 6-{4-[3-((R)-2-Methyl-pyrrolidin-1-yl)-propoxy]-phenyl}-4,5-dihydro-2H-pyridazin-3-one] | – | – | 0.0001 to 0.1 | 0.0001 to 0.1
C[C@@H]1CCCN1CCCOc1ccc(-n2nc(C3CC3)ccc2=O)cc1 [Example 262, 6-Cyclopropyl-2-{4-[3-((R)-2-methyl-pyrrolidin-1-yl)-propoxy]-phenyl}-2H-pyridazin-3-one] | – | – | 0.0001 to 0.1 | 0.101 to 0.5
CN1N=C(c2ccc(OCCCN3CCCCC3)cc2)C2CCCC2C1=O (stereo not shown) [Example 59, 2-Methyl-4-[4-(3-piperidin-1-yl-propoxy)-phenyl]-2,4a,5,6,7,7a-hexahydro-cyclopenta[d]pyridazin-1-one] | 0.0001 to 0.1 | 0.0001 to 0.1 | – | –
O=c1ccc(-c2ccc(OC3CCN(C4CCC4)CC3)nc2)nn1-c1ccccn1 [Example 149, 6-[6-(1-Cyclobutyl-piperidin-4-yloxy)-pyridin-3-yl]-2-pyridin-2-yl-2H-pyridazin-3-one] | – | – | 0.0001 to 0.1 | 0.0001 to 0.1
O=C1CCC(c2ccc(O[C@@H]3CCN(C4CCCC4)C3)cc2)=NN1 [Example 162, 6-[4-((R)-1-Cyclopentyl-pyrrolidin-3-yloxy)-phenyl]-4,5-dihydro-2H-pyridazin-3-one] | – | – | 0.501 to 1 | > 1
CC1CCC(C)N1CCCOc1ccc(-c2nn(C(C)C)c(=O)c3ccsc23)cc1 (stereo not shown) [Example 23, 7-{4-[3-(2,5-Dimethyl-pyrrolidin-1-yl)-propoxy]-phenyl}-5-isopropyl-5H-thieno[2,3-d]pyridazin-4-one] | 0.0001 to 0.1 | 0.101 to 0.5 | – | –
C[C@@H]1CCCN1CCCOc1ccc(C2=NN(Cc3ccc(Cl)cc3Cl)C(=O)CC2)cc1 [Example 8, 2-(2,4-Dichloro-benzyl)-6-{4-[3-((R)-2-methyl-pyrrolidin-1-yl)-propoxy]-phenyl}-4,5-dihydro-2H-pyridazin-3-one] | 0.0001 to 0.1 | 0.0001 to 0.1 | – | –
Cn1nc(-c2ccc(OCCCN3CCCCCC3)cc2)c2ccccc2c1=O [Example 53, 4-[4-(3-Azepan-1-yl-propoxy)-phenyl]-2-methyl-2H-phthalazin-1-one] | 0.0001 to 0.1 | 0.0001 to 0.1 | – | –
